In article PMC2787016 (PLoS Pathogens, 2009):
Where a SMILES comes first, the peptide text is derived from it. Where no end group is shown, it is not given here.

Legend:
HLA-A*0201 = HLA-A*0201 (Homo sapiens, UniProt P04439, D140Y/D185E/D98H/E176V/E277Q/G131W/G231S/I119V/I121R/I166T/I218V/L300P/L318F/N151K/N90K/P208A/P217A/Q86G/Q94H/R138H/R169H/T345S); experiment: biochemical; type: binding
HLA-A*1101 = HLA-A*1101 (Homo sapiens, UniProt P04439, A114D/D185E/E176A/F33Y/L180Q/S129P/T187R); experiment: biochemical; type: binding
[1] = test system: human JA2.1 cells infected with the appropriate rVACV; type: cell-based, HLA-A*0201 transgenic mice; design: key to Natural processing in human APCs: +, Processed; +/−, weakly processed; −, not processed
[2] = test system: peptide-pulsed JA2.1 cells; type: cell-based, HLA-A*0201 transgenic mice
[3] = test system: HLA-restricted target cells pulsed with peptide; type: cell-based, HLA-A*1101 transgenic mice

Work on GLSQFTHTV [MACV NP19–27] yielded an IC50 (HLA-A*0201) of 18 nM.
Work on GLLEWIFRA [SABV GPC142–150] yielded an IC50 (HLA-A*0201) of 1.2 nM.
ATVKNVVLR [GTOV L1977–1985] showed an IC50 (HLA-A*1101) of 54 nM.
In the case of GLSQFTQTV [JUNV NP19–27], the IC50 (HLA-A*0201) is reported as 30 nM.
Compound SSQRDTILK [SABV NP82–90] has an IC50 (HLA-A*1101) of 9.3 nM.
FTNDSIISH [LCMV GPC112–120] was tested, and the IC50 (HLA-A*1101) was 38 nM.
With KCLNIMLGK [SABV Z64–72] the IC50 (HLA-A*1101) was 678 nM.
For SIINHKFCNL [LASV GPC111–120], the IC50 (HLA-A*0201) was 2120 nM.
AINIALIAV [SABV GPC18–26] showed an IC50 (HLA-A*0201) of 834 nM.
For `CC(C)C[C@H](NC(=O)[C@H](CC(C)C)NC(=O)[C@H](CC(N)=O)NC(=O)[C@H](CC(C)C)NC(=O)[C@H](CS)NC(=O)[C@H](Cc1c[nH]cn1)NC(=O)[C@H](CCCNC(=N)N)NC(=O)[C@H](CS)NC(=O)[C@H](CC(C)C)NC(=O)[C@@H](N)Cc1ccc(O)cc1)C(=O)O` [LCMV Z49–58] (H-YLCRHCLNLL-OH), the IC50 (HLA-A*0201) was 3.9 nM.
For GLLQFIVFL [WWAV GPC42–50], the “Natural processing in human APCs” value [1] was “+”, the “Recognition of rVACV-infected human target cells by peptide-primed CD8+ T cells” value [1] was “robust” and the IC50 (HLA-A*0201) was < 0.05 nM. For the same compound, the “Identified as CD8+ T cell epitope after rVACV infection” value [2] was “identified”.
For SSIIRSLPK [WWAV NP439–447], the IC50 (HLA-A*1101) was 2.5 nM.
AMPGVLSYV [MACV NP432–440] gave an IC50 (HLA-A*0201) of 8.4 nM.
Compound LVSFLLLAGR [LCMV GPC46–55] has an IC50 (HLA-A*1101) of 70 nM.
In the case of SIQKNTIFK [MACV NP82–90], the IC50 (HLA-A*1101) is reported as 5.5 nM.
Work on RTAPPSLYGR [MACV Z27–36] yielded an IC50 (HLA-A*1101) of 8.9 nM.
Work on AVYNFATCGI [LCMV GPC34–43] yielded an IC50 (HLA-A*0201) of 137 nM.
With STYYVHENK [SABV GPC90–98] the IC50 (HLA-A*1101) was 6 nM.
In the case of TTYLGPLSCK [LCMV Z24–33], the IC50 (HLA-A*1101) is reported as 2.8 nM.
In the case of LVTFLLLCGR [LASV GPC46–55], the “% of Epitope response” value [3] is reported as 147% and the IC50 (HLA-A*1101) is reported as > 5000 nM.
Compound TVIKTLLEV [WWAV NP274–282] has an IC50 (HLA-A*0201) of 276 nM.
With ALNIALVAV [JUNV GPC18–26] the IC50 (HLA-A*0201) was 79 nM.
Work on ALNIALIAV [WWAV GPC18–26] yielded an IC50 (HLA-A*0201) of 27 nM.
With LLPDALLFTL [SABV NP547–556] the IC50 (HLA-A*0201) was 77 nM.
